Earlier results in US20020004489A1, “Retinoid receptor interacting polynucleotides, polypeptides, and antibodies” (priority 1999, published 2002).

Columns and labels:
[1] = system: protease inhibitor-resistant viruses
[2] = system: viruses containing the K103N mutation
[3] = system: lamivudine-resistant isolates
[4] = deletion of 8-10 C-terminal residues, versus undeleted protein

Molecule: Cc1ccccc1CNC(=O)[C@H]1N(C(=O)[C@@H](O)[C@H](Cc2ccccc2)NC(=O)c2cccc(O)c2C)CSC1(C)C [AG-1776]
- in vitro activity against protease inhibitor-resistant viruses [1]: in vitro activity against protease inhibitor-resistant viruses

Molecule: CC(C)c1nc(COC(N)=O)n(Cc2ccncc2)c1Sc1cc(Cl)cc(Cl)c1 [CAPRAVIRINE]
- activity against K103N mutants [2]: activity against viruses containing the K103N mutation

Molecule: Nc1nc(=O)n([C@@H]2CS[C@H](CO)O2)cc1F [COVIRACIL, emtricitabine]
- activity in vitro relative to lamivudine (3TC) (HIV; in vitro, greater activity than lamivudine (3TC)): 3- to 10 fold

Molecule: Nc1nc(=O)n([C@H]2C=C[C@@H](CO)O2)cc1F [DD4FC]
- activity against AZT/3TC-resistant virus (AZT/3TC-resistant virus): activity against AZT/3TC-resistant virus

Molecule: CC[C@H]1C(=O)Nc2ccc(F)cc2N1C(=O)OC(C)C [GW-420867X]
- activity relative to HBY097 (HIV; greater activity than HBY097): 25 fold
- activity against K103N mutants [2]: active against K103N mutants

Molecule: C[C@H](Sc1nc(N)cc(Cl)n1)c1cc2ccoc2cn1 [PNU-142721]
- activity relative to its predecessor delavirdine (HIV; greater activity than delavirdine): 20- to 50 fold
- activity against K103N mutants [2]: active against K103N mutants

Molecule: Nc1ccn([C@H]2CO[C@@H](CO)S2)c(=O)n1 [dOTC]
- activity against lamivudine-resistant isolates [3]: retains activity against a substantial proportion of lamivudine-resistant isolates

Molecule: Interferon gamma
- activity after deleting 8-10 amino acid residues from the carboxy terminus [4]: up to ten times higher activity
